Laboratory results: patent publication US10617654B2, “Use of fenoterol and fenoterol analogues in the treatment of glioblastomas and astrocytomas” (priority 2010, dated 2020)
Where “and” joins values, the source holds several entries; their conditions need not be identical. Equal entries are not always repeated. Where two headings read alike, the source gives them in different places.

Tests used:
[1] = molecular target: β2-AR (Homo sapiens (Human), UniProt P07550); conditions: previously reported; cited from earlier work
[2] = tested on: rat cardiomyocyte; assay: Rat cardiomyocyte contractility model; assay type: cell-based
[3] = tested on: 1321N1 cells; assay: Inhibition of mitogenesis, [3H]-thymidine incorporation in 1321N1 cells; assay type: cell-based, human
[4] = for Individual plasma concentration: individual rat, listed as (R,S)-naphthylfenoterol, fumarate
Experimental: Dose calculations (mg/kg) were based on the individual body weight measured on the day of treatment. Study duration for pharmacokinetic studies was 6 hours. […] Urine was collected for 0-6 hours and 6 to 24 hours from 3 rats in each treatment group.
In the two-compartment model, the drug distributes into two compartments, the central compartment and the tissue, or peripheral compartment. The central compartment represents the blood, extracellular fluid, and highly perfused tissues. The drug distributes rapidly and uniformly in the central compartment. A second compartment, known as the tissue or peripheral compartment, contains tissues in which the drug equilibrates more slowly. Drug transfer between the two compartments is assumed to take place by first-order processes.
The following abbreviations are utilized in Table 4 below: alpha—macro rate constant associated with the distribution phase; beta—macro rate constant associated with the elimination phase; A, B—zero time intercept associated with the alpha phase and beta phase, respectively; AUC—area under the curve; T1/2 (K10)—half-life associated with the rate constant K10; K10—elimination rate—rate at which the drug leaves the system from the central compartment; K12—rate at which drug enters tissue compartment from the central compartment; K21—rate at which drug enters central compartment from tissue compartment; V1—volume of distribution of the central compartment; V2—volume of distribution of the tissue compartment; Vss—volume of distribution at steady state; and Cl—clearance.

[5] = Brain and plasma analysis of [3H]-(R,R)-methoxyfenoterol after IV administration; assay type: in vivo, male Sprague-Dawley rats; conditions: 5 mg/kg IV; for Brain, Mean / Percent of Dose in Brain, Mean / Plasma, Mean: three rats; for Brain, Individual / Percent of Dose in Brain, Individual / Plasma, Individual: individual rat
Experimental: An overview of the research study design for evaluating the brain-to-plasma distribution of [^3H]
(specific activity 57 Ci/mmol); vehicle was sterile saline, 0.9% sodium chloride, USP. Dose formulations were prepared on the day of the study. The amount of radioactivity in the dose formulation was determined by liquid scintillation. The study lasted for an hour and radioactivity levels in plasma and brain tissue were evaluated at the conclusion of the study. Approximately 5 mls of whole blood was collected. Blood samples were collected via cardiac puncture, transferred into a tube containing K3EDTA as the anticoagulant and kept on wet ice until processed to plasma. To generate plasma, samples were centrifuged within 15 minutes of collection at 2,500 RPM for 15 minutes at room temperature. Plasma was divided equally into three labeled cryovials and stored on ample dry ice until transferred to a freezer set at ≤−20° C. for storage until analysis. Duplicate aliquots were weighed and then combined with scintillation cocktail. The [^3H] radioactivity was determined on a liquid scintillation counter. Brain samples were snap frozen in liquid nitrogen and stored at ≤−70° C. until analysis. Whole brain tissue was homogenized and the weight of the homogenate was determined. Duplicate aliquots from the homogenate were weighed, solubilized and then combined with scintillation cocktail. The [^3H] radioactivity was determined on a liquid scintillation counter.

[6] = rats, 5 mg/kg intravenous, two-compartment open model
[7] = 5 min, listed as [^3H]—(R,R)-methoxyfenoterol
[8] = 60 min, listed as [^3H]—(R,R)-methoxyfenoterol

β2-AR, sequence (P07550 whole entry): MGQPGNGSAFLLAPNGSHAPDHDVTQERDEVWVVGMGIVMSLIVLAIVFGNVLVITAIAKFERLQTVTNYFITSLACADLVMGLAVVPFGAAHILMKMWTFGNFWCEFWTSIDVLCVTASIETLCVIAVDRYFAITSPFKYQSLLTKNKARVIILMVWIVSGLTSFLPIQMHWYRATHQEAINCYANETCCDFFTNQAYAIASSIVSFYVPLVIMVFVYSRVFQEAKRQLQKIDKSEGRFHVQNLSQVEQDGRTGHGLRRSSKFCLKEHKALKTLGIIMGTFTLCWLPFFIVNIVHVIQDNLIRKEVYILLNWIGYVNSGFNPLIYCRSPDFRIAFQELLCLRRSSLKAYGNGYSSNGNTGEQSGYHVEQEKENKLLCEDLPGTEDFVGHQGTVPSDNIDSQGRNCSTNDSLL

## CC(C)NCC(O)c1ccc(O)c2[nH]c(=O)ccc12 (centres unmarked) [Compound 50]
[1]
  Ki: 170 nM
  Ki β1/Ki β2: 1.7

## COc1ccc(C[C@@H](NC[C@H](O)c2cc(O)cc(O)c2)C(C)C)cc1 [(R,R)-4-methoxy-isopropylfenoterol]
[2]
  EC50: > 10000 nM
[3]; [3H]-thymidine incorporation, 1321N1 cells, mean ± SD, n = 4, read-out: Mitogenesis Inhibition IC50
  IC50: 946 nM

## Cc1ccc(OCC(O)C(C)NC(C)C)c2c1CCC2 (centres unmarked) [ICI 118-551, reference compound]
[3]; competitive inhibition of inhibitory effect of (R,R)-fenoterol, 1321N1 cells
  pA2: 8.9
[3]; inhibition of effect of (R,R)-fenoterol, 1321N1 cells
  slope (pA2 analysis): −1.3±0.3

## C[C@@H](Cc1cccc2ccccc12)NC[C@H](O)c1cc(O)cc(O)c1.O=C(O)/C=C/C(=O)O [(R,S)-5, (R,S)-(−)-5-{1-hydroxy-2-[1-methyl-2-(1-naphthyl)ethylamino]ethyl}-1,3-benzenediol fumarate]
[4]; 5 mg/kg IV, 5 min
  Individual plasma concentration: 2.52 µg/mL and 2.10 µg/mL
[4]; 5 mg/kg IV, 240 min
  Individual plasma concentration: 0.11 ug/ml (3×) and 0.13 ug/ml (2×)
[4]; 5 mg/kg IV, 300 min
  Individual plasma concentration: 0.10 ug/ml (2×) and 0.11 ug/ml (2×) and 0.12 ug/ml
[4]; rats, 5 mg/kg IV
  systemic exposure (AUC) compared to (R,R)-fenoterol: significantly higher
[4]; rats, 5 mg/kg IV, 5 min
  Plasma concentration, Average: 2110 ng/mL
[4]; rats, 5 mg/kg IV, 15 min
  Plasma concentration, Average: 680 ng/mL
[4]; rats, 5 mg/kg IV, 30 min
  Plasma concentration, Average: 430 ng/mL
[4]; rats, 5 mg/kg IV, 60 min
  Plasma concentration, Average: 340 ng/mL
[4]; rats, 5 mg/kg IV, 120 min
  Plasma concentration, Average: 240 ng/mL
[4]; rats, 5 mg/kg IV, 240 min
  Plasma concentration, Average: 120 ng/mL
[4]; rats, 5 mg/kg IV, 300 min
  Plasma concentration, Average: 110 ng/mL
[4]; rats, 5 mg/kg IV, 360 min
  Plasma concentration, Average: 90 ng/mL
[4]; [6]
  A (zero time intercept, alpha phase): 4.0365 µg/mL
  AUC: 116.88 µg·min/mL
  B (zero time intercept, beta phase): 0.4372 µg/mL
  Cl: 12.66 mL/min
  T1/2 (K10): 18.11 min
  Vss: 2203.75 mL

## CC[C@H](Cc1ccc(O)cc1)NC[C@H](O)c1cc(O)cc(O)c1 [(R,R)-ethylfenoterol, (R,R)-(−)-ethylfenoterol]
[2]
  EC50: 8550 nM
[3]; Homo sapiens, 1321-N1, read-out: Mitogenesis Inhibition IC50
  IC50: 1.44 nM

## COc1ccc(C[C@@H](C)NC[C@H](O)c2cc(O)cc(O)c2)cc1.Cl [[^3H]-(R,R)-methoxyfenoterol]
[5]; 5 min
  Brain, Mean: 0.92 μg-equiv/g
  Percent of Dose in Brain, Mean: 0.14%
  Plasma, Mean: 3.25 μg-equiv/ml
  Brain, Individual: 1.00 μg-equiv/g and 0.80 μg-equiv/g and 0.95 μg-equiv/g
  Percent of Dose in Brain, Individual: 0.15% (2×) and 0.12%
  Plasma, Individual: 3.30 μg-equiv/ml and 3.08 μg-equiv/ml and 3.37 μg-equiv/ml
[5]; [7]
  Brain, Mean: 0.92±0.10 μg-equiv/g
  Plasma, Mean: 3.25±0.15 μg-equiv/ml
[5]; 15 min
  Brain, Mean: 0.80 μg-equiv/g
  Percent of Dose in Brain, Mean: 0.12%
  Plasma, Mean: 1.79 μg-equiv/ml
  Brain, Individual: 0.99 μg-equiv/g and 0.36 μg-equiv/g and 1.06 μg-equiv/g
  Percent of Dose in Brain, Individual: 0.15% and 0.06% and 0.16%
  Plasma, Individual: 2.19 μg-equiv/ml and 0.89 μg-equiv/ml and 2.29 μg-equiv/ml
[5]; 30 min
  Brain, Mean: 0.72 μg-equiv/g
  Percent of Dose in Brain, Mean: 0.11%
  Plasma, Mean: 1.53 μg-equiv/ml
  Brain, Individual: 0.22 μg-equiv/g and 1.00 μg-equiv/g and 0.95 μg-equiv/g
  Percent of Dose in Brain, Individual: 0.03% and 0.15% (2×)
  Plasma, Individual: 0.63 μg-equiv/ml and 1.97 μg-equiv/ml and 2.00 μg-equiv/ml
[5]; 60 min
  Brain, Mean: 0.70 μg-equiv/g
  Percent of Dose in Brain, Mean: 0.11%
  Plasma, Mean: 1.24 μg-equiv/ml
  Brain, Individual: 0.44 μg-equiv/g and 0.53 μg-equiv/g and 1.12 μg-equiv/g
  Percent of Dose in Brain, Individual: 0.06% and 0.09% and 0.17%
  Plasma, Individual: 0.97 μg-equiv/ml and 1.01 μg-equiv/ml and 1.73 μg-equiv/ml
[5]; [8]
  Brain, Mean: 0.70±0.37 μg-equiv/g
  Plasma, Mean: 1.24±0.43 μg-equiv/ml
[5]; over 60 minutes
  percent dose found in the brain, any given animal: no more than 0.17%
[5]; from 5 minutes to 60 minutes
  decrease of plasma levels: 62%
